The target in one experiment is GSK3β (Homo sapiens, UniProt P49841). Briefly: GSK3β kinase assay (Caliper LabChip3000, fluoresceinated peptide substrate). It is filed as biochemical. Here is the method:
(§1) The kinase assay was performed in V-bottom 384-well plates. […] The reaction was incubated at room temperature for 20 hours and terminated by adding 45 μl of 35 mM EDTA to each sample. The reaction mixture was analyzed on the Caliper LabChip3000 (Caliper, Hopkinton, Mass.) by electrophoretic separation of the unphosphorylated substrate and phosphorylated product. […] Compounds were dissolved at 10 mM in dimethylsulfoxide (DMSO) and evaluated at eleven concentrations. IC50 values were derived by non-linear regression analysis.

The target of another experiment is GSK3α (Homo sapiens, UniProt P49840). Briefly: biochemical. Here is the method:
as §1

A further experiment concerns pTau. Briefly: pTau assay (method not described). It is filed as cell-based.
The mark [1] stands for this setting: first value of the cell, 250 pM enzyme, 20 uM ATP, 20 hours at room temperature, read-out: GSK3β/α (nM): GSK3β IC50.
Where [2] appears, read: second value of the cell, 250 pM enzyme, 20 uM ATP, 20 hours at room temperature, read-out: GSK3β/α (nM): GSK3α IC50.

SMILES strings stand for the structures. Like-named read-outs stand apart in the source and are kept apart here.

Sequence of GSK3α (P49840 whole entry, species assumed): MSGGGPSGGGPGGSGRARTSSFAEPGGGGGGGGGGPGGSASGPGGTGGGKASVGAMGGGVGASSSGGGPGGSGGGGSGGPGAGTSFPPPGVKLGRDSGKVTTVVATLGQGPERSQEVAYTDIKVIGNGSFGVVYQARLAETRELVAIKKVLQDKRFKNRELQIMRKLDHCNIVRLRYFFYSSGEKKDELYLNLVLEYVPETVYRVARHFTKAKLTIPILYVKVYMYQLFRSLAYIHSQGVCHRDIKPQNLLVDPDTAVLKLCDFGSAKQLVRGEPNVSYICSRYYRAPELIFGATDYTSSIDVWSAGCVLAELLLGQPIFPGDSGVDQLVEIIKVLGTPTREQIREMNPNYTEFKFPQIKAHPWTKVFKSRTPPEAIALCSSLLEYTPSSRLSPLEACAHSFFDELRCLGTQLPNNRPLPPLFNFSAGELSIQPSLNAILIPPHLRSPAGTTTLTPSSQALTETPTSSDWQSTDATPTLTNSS
Sequence of GSK3β (P49841 whole entry, species assumed): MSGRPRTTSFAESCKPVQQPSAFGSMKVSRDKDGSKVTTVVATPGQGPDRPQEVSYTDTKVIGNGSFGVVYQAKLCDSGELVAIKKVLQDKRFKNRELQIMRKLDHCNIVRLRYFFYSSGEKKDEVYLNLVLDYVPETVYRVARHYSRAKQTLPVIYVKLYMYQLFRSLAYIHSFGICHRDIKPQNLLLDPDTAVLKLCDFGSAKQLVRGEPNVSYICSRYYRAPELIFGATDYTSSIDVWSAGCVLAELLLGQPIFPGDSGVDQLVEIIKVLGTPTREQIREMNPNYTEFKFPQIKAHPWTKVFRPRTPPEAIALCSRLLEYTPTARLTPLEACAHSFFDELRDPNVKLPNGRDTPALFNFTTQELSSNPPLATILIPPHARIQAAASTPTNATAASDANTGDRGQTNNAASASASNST

`Cc1cccc2sc(NC(=O)c3ccnc(NC(=O)C4CC4)c3)nc12` [Example 184, 2-(cyclopropanecarboxamido)-N-(4-methylbenzo[d]thiazol-2-yl)isonicotinamide]: the IC50 on GSK3β (setting [1]) is 800 nM; at GSK3α (setting [2]) it was 170 nM; in the experiment on pTau (read-out: pTau), at least 10000 nM.

In the case of `O=C(Nc1cncc(Oc2ccccc2)c1)c1ccnc(NC(=O)C2CC2)c1` [Example 107, 2-(cyclopropanecarboxamido)-N-(5-phenoxypyridin-3-yl)isonicotinamide], the IC50 stood at 19 nM against GSK3β, 9.1 nM at GSK3α (setting [2]) and 3300 nM in the experiment with pTau (read-out: pTau).

In the case of `O=C(Nc1cnccc1-c1ccccc1)c1ccnc(NC(=O)C2CC(F)(F)C2)c1` [Example 216, 2-(3,3-Difluorocyclobutanecarboxamido)-N-(4-phenylpyridin-3-yl)isonicotinamide], the values for the IC50 on GSK3β, on GSK3α (setting [2]) and in the experiment on pTau (read-out: pTau) were 1.9 nM, 3.4 nM and 120 nM, respectively.

`CCOc1cccc(-c2cncc(NC(=O)c3ccnc(NC(=O)C4CC4)c3)c2)c1Cl` [Example 158, N-(5-(2-chloro-3-ethoxyphenyl)pyridin-3-yl)-2-(cyclopropanecarboxamido)isonicotinamide]: the figures for the IC50 at GSK3β (setting [1]), on GSK3α (setting [2]) and in the experiment with pTau (read-out: pTau) were 7.7 nM, 2.5 nM and 425 nM, respectively.

For the compound `O=C(Nc1cncc(-c2ccccc2C(F)(F)F)c1)c1ccnc(NC(=O)C2CC2)c1` [Example 124, 2-(cyclopropanecarboxamido)-N-(5-(2-(trifluoromethyl)phenyl)pyridin-3-yl)isonicotinamide], the IC50 is 12 nM at GSK3β (setting [1]), 6.1 nM at GSK3α (setting [2]) and 510 nM in the experiment on pTau (read-out: pTau).

Regarding `O=C(Nc1cnccc1-c1ccc(C(F)(F)F)cc1)c1ccnc(NC(=O)C2CC2)c1` [Example 56, 2-(Cyclopropanecarboxamido)-N-(4-(4-(trifluoromethyl)phenyl)pyridin-3-yl)isonicotinamide], the IC50 amounted to 13 nM on GSK3β (setting [1]), 8.4 nM on GSK3α (setting [2]) and 230 nM with pTau (read-out: pTau).

Consider `O=C(Nc1cncc(-c2ccncc2)c1)c1ccnc(NC(=O)C2CC2)c1` [Example 106, N-([3,4′-bipyridin]-5-yl)-2-(cyclopropanecarboxamido)isonicotinamide], for which the values for the IC50 on GSK3β, at GSK3α (setting [2]) and with pTau (read-out: pTau) were 4.8 nM, 2.5 nM and 320 nM, respectively.

Turning to `CC(C)C(=O)Nc1cc(C(=O)Nc2cnccc2-c2ccccc2)ccn1` [Example 185, 2-Isobutyramido-N-(4-phenylpyridin-3-yl)isonicotinamide], the IC50 against GSK3β came to 1.4 nM; on GSK3α (setting [2]), 4.2 nM; in the experiment with pTau (read-out: pTau) it was 180 nM.

For the compound `O=C(Nc1cnccc1N1CCC(F)(F)C1)c1ccnc(NC(=O)C2CC2)c1` [Example 83, 2-(Cyclopropanecarboxamido)-N-(4-(3,3-difluoropyrrolidin-1-yl)pyridin-3-yl)isonicotinamide], the IC50 is 71 nM at GSK3β (setting [1]), 49 nM on GSK3α (setting [2]) and 4400 nM in the experiment with pTau (read-out: pTau).

On to `CCC1(c2cc(Cl)ncc2NC(=O)c2ccnc(NC(=O)C3CCC(F)(F)C3)c2)OCCO1` (centres unmarked) [Example 238, N-(6-chloro-4-(2-ethyl-1,3-dioxolan-2-yl)pyridin-3-yl)-2-(3,3-difluorocyclopentanecarboxamido)isonicotinamide], for which the IC50 at GSK3β (setting [1]) is 0.11 nM; at GSK3α (setting [2]) it was 0.07 nM; in the experiment on pTau (read-out: pTau), 8.3 nM.

As for `C[C@@H]1CN(c2ccncc2NC(=O)c2ccnc(NC(=O)C3CC3)c2)C[C@H](C)O1` [Example 79, 2-(Cyclopropanecarboxamido)-N-(4-((2S,6R)-2,6-dimethylmorpholino)pyridin-3-yl)isonicotinamide], the IC50 was 14 nM against GSK3β, 5.5 nM at GSK3α (setting [2]) and 190 nM in the experiment on pTau (read-out: pTau).

Turning to `O=C(Nc1cncc(-c2ccccc2)c1)c1ccnc(NC(=O)C2CC(F)(F)C2)c1` [Example 214, 2-(3,3-difluorocyclobutanecarboxamido)-N-(5-phenylpyridin-3-yl)isonicotinamide], the values for the IC50 on GSK3β, at GSK3α (setting [2]) and in the experiment with pTau (read-out: pTau) were 4.1 nM, 2.9 nM and 490 nM, respectively.

As to `CC1(C)CN(c2ccncc2NC(=O)c2ccnc(NC(=O)C3CC3)c2)CCO1` [Example 87, 2-(Cyclopropanecarboxamido)-N-(4-(2,2-dimethylmorpholino)pyridin-3-yl)isonicotinamide], the IC50 is 0.79 nM against GSK3β, 0.39 nM at GSK3α (setting [2]) and 25 nM in the experiment on pTau (read-out: pTau).

Turning to `CC(C)C(=O)Nc1cc(C(=O)Nc2cnccc2OCCN2CCCC2)ccn1` [Example 188, 2-Isobutyramido-N-(4-(2-(pyrrolidin-1-yl)ethoxy)pyridin-3-yl)isonicotinamide], the IC50 at GSK3β (setting [1]) was 39 nM; at GSK3α (setting [2]), 19 nM; in the experiment on pTau (read-out: pTau) it was 2200 nM.

Turning to `CC1(C)CC1C(=O)Nc1cc(C(=O)Nc2cnccc2-c2ccccc2)ccn1` (centres unmarked) [Example 97, 2-(2,2-Dimethylcyclopropanecarboxamido)-N-(4-phenylpyridin-3-yl)isonicotinamide], the IC50 at GSK3β (setting [1]) was found to be 1.1 nM; at GSK3α (setting [2]) it was 8.5 nM; in the experiment with pTau (read-out: pTau), 870 nM.

In the case of `Cc1cncc(NC(=O)c2ccnc(NC(=O)C3CC3)c2)c1` [Example 102, 2-(cyclopropanecarboxamido)-N-(5-methylpyridin-3-yl)isonicotinamide], the figures for the IC50 against GSK3β, on GSK3α (setting [2]) and with pTau (read-out: pTau) were 9.5 nM, 5.4 nM and 740 nM, respectively.

On to `CC(C)C(=O)Nc1cc(C(=O)Nc2cnccc2OCCC(C)(C)O)ccn1` [Example 190, N-(4-(3-hydroxy-3-methylbutoxy)pyridin-3-yl)-2-isobutyramidoisonicotinamide], for which the IC50 at GSK3β turned out to be 3.3 nM; at GSK3α, 1.4 nM; in the experiment with pTau (read-out: pTau (nM)) it was 19 nM.

For `O=C(Nc1cnccn1)c1ccnc(NC(=O)C2CC2)c1` [Example 170, 2-(Cyclopropanecarboxamido)-N-(pyrazin-2-yl)isonicotinamide], the figures for the IC50 on GSK3β (setting [1]), at GSK3α (setting [2]) and in the experiment on pTau (read-out: pTau) were 8.1 nM, 2.9 nM and 570 nM, respectively.

For the compound `O=C(Nc1cnccc1-c1ccc(Cl)cc1)c1ccnc(NC(=O)C2CC(F)C2)c1` (single isomer, unassigned) [Example 223, N-(4-(4-chlorophenyl)pyridin-3-yl)-2-((1,3-cis)-3-fluorocyclobutanecarboxamido)isonicotinamide], the IC50 on GSK3β (read-out: GSK3β/α (nM): GSK3β IC50, first value of the cell, 250 pM enzyme, 20 uM ATP, 20 hours at room temperature) came out at 6.9 nM; at GSK3α (read-out: GSK3β/α (nM): GSK3α IC50, second value of the cell, 250 pM enzyme, 20 uM ATP, 20 hours at room temperature), 3.1 nM; in the experiment on pTau (read-out: pTau), 150 nM.

For the compound `O=C(Nc1cncc(-c2ccccc2F)c1)c1ccnc(NC(=O)C2CC2)c1` [Example 116, 2-(cyclopropanecarboxamido)-N-(5-(2-fluorophenyl)pyridin-3-yl)isonicotinamide], the IC50 on GSK3β was found to be 0.35 nM; against GSK3α it was 0.28 nM; with pTau (read-out: pTau (nM)), 180 nM.

In the case of `CC(C)c1ccc(-c2ccncc2NC(=O)c2ccnc(NC(=O)C3CC3)c2)cc1` [Example 75, 2-(Cyclopropanecarboxamido)-N-(4-(4-isopropylphenyl)pyridine-3-yl)isonicotinamide], the IC50 on GSK3β (setting [1]) worked out at 30 nM; at GSK3α (setting [2]), 7.4 nM; in the experiment on pTau (read-out: pTau), 460 nM.

For `O=C(Nc1cncc(-c2cccc(F)n2)c1)c1ccnc(NC(=O)C2CC2)c1` [Example 165, 2-(cyclopropanecarboxamido)-N-(6-fluoro-[2,3′-bipyridin]-5′-yl)isonicotinamide], the IC50 on GSK3β (setting [1]) was found to be 3.8 nM; at GSK3α (setting [2]), 1.3 nM; in the experiment with pTau (read-out: pTau), 125 nM.

Take `CC(C)C(=O)Nc1cc(C(=O)Nc2cnccc2OCC(F)F)ccn1` [Example 204, N-(4-(2,2-Difluoroethoxy)pyridin-3-yl)-2-isobutyramidoisonicotinamide]: the IC50 against GSK3β was 1.8 nM; on GSK3α (setting [2]), 0.97 nM; in the experiment on pTau (read-out: pTau) it was 41 nM.

In the case of `CCOc1ccncc1NC(=O)c1ccnc(NC(=O)C2CCCC2)c1` [Example 226, 2-(Cyclopentanecarboxamido)-N-(4-ethoxypyridin-3-yl)isonicotinamide], the IC50 against GSK3β amounted to 0.62 nM; at GSK3α (setting [2]), 0.41 nM; in the experiment with pTau (read-out: pTau), 31 nM.

On to `O=C(Nc1cnccc1C1CCC1)c1ccnc(NC(=O)C2CC2)c1` [Example 41, N-(4-cyclobutylpyridin-3-yl)-2-(cyclopropanecarboxamido)isonicotinamide], for which the IC50 against GSK3β came out at 7.5 nM; on GSK3α (setting [2]), 3 nM; in the experiment on pTau (read-out: pTau), 380 nM.

In the case of `Cn1cnc(NC(=O)c2ccnc(NC(=O)C3CC3)c2)c1` [Example 174, 2-(cyclopropanecarboxamido)-N-(1-methyl-1H-imidazol-4-yl)isonicotinamide], the results for the IC50 at GSK3α (setting [2]) and with pTau (read-out: pTau) were 1200 nM and at least 10000 nM, respectively.

For the compound `COc1ccc(NC(=O)c2ccnc(NC(=O)C3CC3)c2)cn1` [Example 7, 2-(Cyclopropanecarboxamido)-N-(6-methoxypyridin-3-yl)isonicotinamide], the IC50 at GSK3α (setting [2]) is 1000 nM; with pTau (read-out: pTau), at least 10000 nM.

In the case of `O=C(Nc1cncc(-c2ccccc2)c1)c1ccnc(NC(=O)C2CCC2)c1` [Example 213, 2-(cyclobutanecarboxamido)-N-(5-phenylpyridin-3-yl)isonicotinamide], the results for the IC50 on GSK3α (setting [2]) and in the experiment with pTau (read-out: pTau) were 2.8 nM and 1600 nM, respectively.

As for `O=C(Nc1cnccc1-c1ccsc1)c1ccnc(NC(=O)C2CC2)c1` [Example 31, 2-(Cyclopropanecarboxamido)-N-(4-(thiophen-3-yl)pyridin-3-yl)isonicotinamide], the IC50 amounted to 4.4 nM on GSK3β (setting [1]) and 200 nM with pTau (read-out: pTau).

The values above are taken from patent US9809573B2, “Substituted pyridine derivatives useful as GSK-3 inhibitors” (priority 2013, dated 2017).
